One may read the solubility as the dissolved amount per volume that the medium holds. High values mean a readily soluble substance, low ones a poorly soluble substance.

Here are results for 5 molecules from patent US6900343B1, “Method for the purification of metallocenes” (Basell Polyolefine GmbH, priority 1998, dated 2005).

A short description of data set [1]: Propylene polymerization with supported metallocene/MAO/SiO2 catalyst. Particulars: supported on SiO2 with MAO (Al/Zr=215); liquid propylene, 60° C., 1 hour. How it is done:
35.1 mg (0.047 mmol) of (1) were stirred in 2.1 ml of 30% strength MAO solution in toluene (Al/Zr=215) for 60 minutes at room temperature. 2 g of SiO2 (Grace XPO2107, pretreated at 140° C., 10 mbar, 10 hours) were subsequently added and the mixture was stirred for another 10 minutes. The solvent was removed in an oil pump vacuum.
A dry 2 l reactor was flushed firstly with nitrogen and subsequently with propylene and charged with 1.5 l of liquid propylene. 2 ml of TEA (20% strength in Varsol) were added thereto and the mixture was stirred for 15 minutes. The catalyst system prepared above (0.886 g) was subsequently resuspended in 20 ml of heptane and then injected into the reactor and rinsed in with 15 ml of heptane. The reaction mixture was heated to the polymerization temperature of 60° C. and polymerization was carried out for 1 hour. The polymerization was stopped by venting the remaining propylene. The polymer was dried in a vacuum drying oven. This gave 470 g of polypropylene powder. […] The catalyst activity was 0.53 kg of PP/g of catalyst x h.
27.1 mg (0.047 mmol) of dimethylsilanediylbis(2-methyl-4,5-benzoindenyl)zirconium dichloride were stirred in 2.1 ml of 30% strength MAO solution in toluene (Al/Zr=215) for 60 minutes at room temperature. […]

Data set [2] in a line: Solubility comparison in toluene at room temperature.

With `CC1=Cc2c(ccc3ccccc23)[C]12[Si](C)(C)[C]1(C(C)=Cc3c1ccc1ccccc31)[Zr]2([Cl])[O]c1ccc(C(C)(C)C)cc1C(C)(C)C` (stereo not shown) [Compound 1, Dimethylsilanediylbis(2-methyl-4,5-benzoindenyl)zirconium Monochloride mono(2,4-di-tert-butylphenoxide)], the catalyst activity in data set [1] was 0.53 kg of PP/g of catalyst x h. Besides, the solubility in data set [2] was greater than 13 mM.
For `CCC(C)(C)c1ccc([O][Zr]2([Cl])[C]3(C(C)=Cc4c3ccc3ccccc43)[Si](C)(C)[C]23C(C)=Cc2c3ccc3ccccc23)c(C(C)(C)CC)c1` (stereo not shown) [Compound 6, Dimethylsilanediylbis(2-methyl-4,5-benzoindenyl)-zirconium Monochloride mono(2,4-di-tert-pentylphenoxide)], the solubility entry in data set [2] is on record as “about 17.7 mmol/l”.
On the same count and under the same terms, for `Cc1cc2ccccc2[c-]1[Si](C)(C)[c-]1c(C)cc2ccccc21.[Cl-].[Cl-].[Zr+4]` (stereo not shown) [dimethylsilanediylbis(2-methylindenyl)zirconium dichloride, reference compound] the value was “about 2.1 mmol/l”.
On the same count and under the same terms, under “Dimethylsilanediyl-bis(2-methylindenyl)zirconium Monochloride mono(2,4-di-tert-butylphenoxide) [Compound 2]” stands greater than 15 mM.
For `CC1=Cc2c(ccc3ccccc23)[C]12[Si](C)(C)[C]1(C(C)=Cc3c1ccc1ccccc31)[Zr]2([Cl])[Cl]` (stereo not shown) [dimethylsilanediylbis(2-methyl-4,5-benzoindenyl)zirconium dichloride, reference compound], the catalyst activity in data set [1] is 0.46 kg of PP/g of catalyst x h. The solubility result in data set [2] is “about 0.36 mmol/l”.
